The text below walks through data of patent US7157241B2, “Serine protease genes related to DPPIV” (Ferring BV, priority 2000, dated 2007).

What is called Km is the concentration of substrate that gives half-maximal velocity.

Common to all, as to type: biochemical
Series [1] concerns the target T1, DPRP-1 (Homo sapiens, UniProt Q6V1X1).
T1 construct: DNA fragments encoding the full-length polypeptide DPRP-1 were amplified using PCR oligonucleotide primers; made in house; host or cells: PEAK or COS-1 cells, transient transfection
The series can be described thus: Inhibition of DPRP-1 by protease inhibitors (Ala-Pro-AMC fluorescence). The note with it: for Residual activity (% of control) DPRP-1: preincubated 30 min at room temperature, Ala-Pro-AMC 100 μM. How it is done:
(§1) The kinetic properties of recombinant DPRP-1 and DPRP-2 were determined in a continuous fluorimetric assay. Buffer, pH and temperature dependence optimization led to the following assay conditions: Enzyme assays were performed in 50 mM PBS, pH7.4 50 μl (50 μg/ml) of purified enzymes were mixed with 1 μl of different concentration of Ala-Pro-AMC (Enzyme Systems). Plates were then incubated at 37° C. for 30 min, and fluorescence was detected using a Wallac 1420 Fluorimeter with λex40355 and λem535.
(§2) The two purified proteases and DPPIV were preincubated with inhibitors at room temperature for 30 min. Substrate, Ala-Pro-AMC (100 μM), was then added, and the fluorescence intensity was recorded as 60 readings during a 60 min period.

Series [2] deals with T2, DPPIV (Homo sapiens, UniProt P27487). The series can be described thus: Inhibition of DPPIV by protease inhibitors (Ala-Pro-AMC fluorescence). The note with it: for Residual activity (% of control) DPPIV: preincubated 30 min at room temperature, Ala-Pro-AMC 100 μM. As to the method:
as §1, §2

The target in series [3] is T3, DPRP-2 (Homo sapiens, UniProt Q86TI2).
T3 construct: DNA fragments encoding the full length polypeptide DPRP-2 were amplified using PCR oligonucleotide primers; made in house; host or cells: PEAK or COS-1 cells, transient transfection
The series can be described thus: Inhibition of DPRP-2 by protease inhibitors (Ala-Pro-AMC fluorescence). The note with it: for Residual activity (% of control) DPRP-2: preincubated 30 min at room temperature, Ala-Pro-AMC 100 μM. How it is done: as §1, §2

Series [4] has as its target T2, DPPIV. The series can be described thus: Substrate specificity, DPPIV. The note with it: substrate 125 μM, 30-minute incubation with enzyme. As to the method: (§3) In addition to Ala-Pro-AMC, additional substrates tested also confirmed that DPRP-1 and DPRP-2 are dipeptidyl peptidases. The data were derived by determining the fluorescence change following a 30-minute incubation of the substrates (125 μM) with enzymes as a percentage of the fluorescence measured at Ala-Pro-AMC and Gly-Pro-AMC were the only good substrates among those tested.

In series [5] the target is T1, DPRP-1. The experiment in a line: Substrate specificity, DPRP-1. The note with it: substrate 125 μM, 30-minute incubation with enzyme. How it is done:
as §3

The target of series [6] is T3, DPRP-2. The experiment in a line: Substrate specificity, DPRP-2. The note with it: substrate 125 μM, 30-minute incubation with enzyme. As to the method: as §3
The target of series [7] is T3, DPRP-2. The experiment in a line: Continuous fluorimetric assay, kinetic properties of recombinant DPRP-2. The note with it: substrate Ala-Pro-AMC; 50 mM PBS, pH7.4, 37° C., 30 min. As to the method:
as §1

Series [8] deals with T1, DPRP-1. The series can be described thus: Continuous fluorimetric assay, kinetic properties of recombinant DPRP-1. The note with it: substrate Ala-Pro-AMC; 50 mM PBS, pH7.4, 37° C., 30 min. As to the method: as §1
Setting [9] is: protease inhibitor panel of Table 5.

Square brackets hold non-standard residues; d marks the D form. Peptide text beside a SMILES is read from it. * marks the point of attachment. Sta = CC(C)C[C@H](N)[C@@H](O)CC(=O)O; pNA = O=[N+]([O-])c1ccc(N*)cc1; AMC = Cc1cc(=O)oc2cc(N*)ccc12; Isovaleryl = CC(C)CC(=O)*

T1 sequence (Q6V1X1 17-898): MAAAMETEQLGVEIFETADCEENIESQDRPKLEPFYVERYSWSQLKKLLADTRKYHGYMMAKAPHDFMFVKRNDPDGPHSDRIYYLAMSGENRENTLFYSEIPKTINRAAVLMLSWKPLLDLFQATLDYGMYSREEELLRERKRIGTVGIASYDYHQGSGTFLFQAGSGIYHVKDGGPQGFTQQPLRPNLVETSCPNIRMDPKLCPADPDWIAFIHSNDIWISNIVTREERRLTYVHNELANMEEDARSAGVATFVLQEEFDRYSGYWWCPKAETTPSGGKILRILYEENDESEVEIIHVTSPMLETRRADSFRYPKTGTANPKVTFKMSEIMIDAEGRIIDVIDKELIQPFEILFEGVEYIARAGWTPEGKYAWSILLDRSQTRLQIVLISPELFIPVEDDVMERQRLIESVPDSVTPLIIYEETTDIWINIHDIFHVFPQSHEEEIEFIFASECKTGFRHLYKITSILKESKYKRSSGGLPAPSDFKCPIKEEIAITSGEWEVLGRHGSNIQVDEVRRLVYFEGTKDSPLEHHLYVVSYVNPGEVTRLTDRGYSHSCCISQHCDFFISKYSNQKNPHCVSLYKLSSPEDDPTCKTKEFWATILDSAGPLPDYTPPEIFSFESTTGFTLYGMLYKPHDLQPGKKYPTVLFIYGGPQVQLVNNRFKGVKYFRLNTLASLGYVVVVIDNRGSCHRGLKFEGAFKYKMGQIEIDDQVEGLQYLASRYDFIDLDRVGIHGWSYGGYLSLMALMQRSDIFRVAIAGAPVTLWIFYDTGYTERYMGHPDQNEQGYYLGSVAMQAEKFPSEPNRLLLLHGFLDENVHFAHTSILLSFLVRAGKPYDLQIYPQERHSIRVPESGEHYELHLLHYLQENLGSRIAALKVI
T2 sequence (P27487 whole entry): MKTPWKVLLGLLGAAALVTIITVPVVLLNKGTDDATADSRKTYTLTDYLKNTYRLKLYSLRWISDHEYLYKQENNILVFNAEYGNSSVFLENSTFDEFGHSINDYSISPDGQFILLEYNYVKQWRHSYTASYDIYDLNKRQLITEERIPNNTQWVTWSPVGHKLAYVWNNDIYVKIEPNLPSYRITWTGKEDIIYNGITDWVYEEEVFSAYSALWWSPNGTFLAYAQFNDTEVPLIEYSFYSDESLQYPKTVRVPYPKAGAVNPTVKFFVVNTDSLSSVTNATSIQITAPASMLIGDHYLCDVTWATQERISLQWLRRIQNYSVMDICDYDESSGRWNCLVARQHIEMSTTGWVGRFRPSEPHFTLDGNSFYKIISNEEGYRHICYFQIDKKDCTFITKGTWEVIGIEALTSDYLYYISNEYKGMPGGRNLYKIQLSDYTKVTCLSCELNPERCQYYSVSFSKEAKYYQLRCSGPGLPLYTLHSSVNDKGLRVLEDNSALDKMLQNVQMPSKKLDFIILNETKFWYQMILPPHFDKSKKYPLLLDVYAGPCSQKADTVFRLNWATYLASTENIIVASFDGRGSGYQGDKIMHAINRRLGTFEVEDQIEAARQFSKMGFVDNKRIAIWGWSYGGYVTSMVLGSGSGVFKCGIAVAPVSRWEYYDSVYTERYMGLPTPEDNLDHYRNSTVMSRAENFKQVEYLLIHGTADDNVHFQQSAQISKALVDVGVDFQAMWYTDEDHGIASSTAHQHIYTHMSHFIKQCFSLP
T3 sequence (Q86TI2 whole entry, the tested form may be a part): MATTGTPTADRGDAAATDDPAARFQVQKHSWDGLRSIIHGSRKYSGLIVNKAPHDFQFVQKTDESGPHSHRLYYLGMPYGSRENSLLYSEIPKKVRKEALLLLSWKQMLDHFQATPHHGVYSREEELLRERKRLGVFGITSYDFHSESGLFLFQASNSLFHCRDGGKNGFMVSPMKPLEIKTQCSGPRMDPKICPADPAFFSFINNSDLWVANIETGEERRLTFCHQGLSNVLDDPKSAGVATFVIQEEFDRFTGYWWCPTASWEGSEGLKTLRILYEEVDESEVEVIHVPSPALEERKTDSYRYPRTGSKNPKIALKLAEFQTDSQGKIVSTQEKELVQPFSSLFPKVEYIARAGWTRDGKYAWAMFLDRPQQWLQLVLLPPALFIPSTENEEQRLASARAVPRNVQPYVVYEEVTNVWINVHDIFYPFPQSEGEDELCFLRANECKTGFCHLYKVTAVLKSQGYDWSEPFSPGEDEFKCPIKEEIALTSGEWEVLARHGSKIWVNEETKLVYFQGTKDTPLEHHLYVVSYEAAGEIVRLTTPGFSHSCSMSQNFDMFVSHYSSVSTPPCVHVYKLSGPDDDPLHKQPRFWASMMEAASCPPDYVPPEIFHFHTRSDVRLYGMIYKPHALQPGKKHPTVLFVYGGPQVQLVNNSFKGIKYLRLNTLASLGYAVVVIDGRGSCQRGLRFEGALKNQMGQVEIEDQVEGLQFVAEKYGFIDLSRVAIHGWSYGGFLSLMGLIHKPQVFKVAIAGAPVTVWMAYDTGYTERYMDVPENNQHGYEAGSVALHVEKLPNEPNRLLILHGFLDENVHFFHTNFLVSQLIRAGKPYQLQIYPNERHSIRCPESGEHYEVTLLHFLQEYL

For the molecule `NCCc1ccc(S(=O)(=O)F)cc1` [AEBSF], the “Residual activity (% of control) DPRP-1” value on DPRP-1 [1] (inhibitor 5 mM) is 29.6 % of control. Further, the “Inhibition of DPRP-1 (in words)” value at DPRP-1 [1] (setting [9]) was “strong inhibition”. Besides, the “Residual activity (% of control) DPPIV” value on DPPIV [2] (inhibitor 5 mM) is 21.1 % of control. Besides, on DPPIV [2] (setting [9]), the “Inhibition of DPPIV (in words)” value is “strong inhibition”. Besides, the “Residual activity (% of control) DPRP-2” value at DPRP-2 [3] (inhibitor 5 mM) is reported as 23.9 % of control. For the same molecule, the “Inhibition of DPRP-2 (in words)” value on DPRP-2 [3] (setting [9]) is on record as “strong inhibition”.
In the case of `C[C@H](N)C(=O)N[C@@H](Cc1ccccc1)C(=O)N1CCC[C@H]1C(=O)Nc1ccc([N+](=O)[O-])cc1` [Ala-Phe-Pro-pNA] (H-Ala-Phe-Pro-pNA), the “% Change in Fluorescence at 30 minutes DPPIV” value (“% Change … at 30 minutes DPPIV” below) at DPPIV [4] was found to be 2.0%. The “% Change in Fluorescence at 30 minutes DPRP-1” value (from here on “% Change … at 30 minutes DPRP-1”) at DPRP-1 [5] is −4%. Besides, the “% Change in Fluorescence at 30 minutes DPRP-2” value (“% Change … at 30 minutes DPRP-2” below) on DPRP-2 [6] is on record as −0.5%.
`Cc1cc(=O)oc2cc(NC(=O)[C@@H]3CCCN3C(=O)[C@H](C)N)ccc12` [Ala-Pro-AMC] (H-Ala-Pro-{AMC}): the results for the Km at DPRP-2 [7] and on DPRP-1 [8] were 161 µM and 208 µM, respectively. Besides, the “% Change … at 30 minutes DPPIV” value at DPPIV [4] turned out to be 379.0%. Besides, the “% Change … at 30 minutes DPRP-1” value on DPRP-1 [5] worked out at 239.0%. Also, the “% Change … at 30 minutes DPRP-2” value at DPRP-2 [6] is listed as 127.5%.
For the molecule `C[C@H](N)C(=O)N1CCC[C@H]1C(=O)Nc1ccc([N+](=O)[O-])cc1` [Ala-Pro-pNA] (H-Ala-Pro-pNA), the “% Change … at 30 minutes DPPIV” value on DPPIV [4] came to 29.5%. In addition, the “% Change … at 30 minutes DPRP-1” value on DPRP-1 [5] worked out at 45.5%. For the same molecule, the “% Change … at 30 minutes DPRP-2” value on DPRP-2 [6] turned out to be 44.0%.
As to `OCCS` [B-Mercaptoethonal], the “Residual activity (% of control) DPRP-1” value at DPRP-1 [1] (inhibitor 100 mM) is given as 93.2 % of control. Moreover, the “Residual activity (% of control) DPPIV” value at DPPIV [2] (inhibitor 100 mM) is 98.0 % of control. Also, at DPRP-2 [3] (inhibitor 100 mM), the “Residual activity (% of control) DPRP-2” value is 84.0 % of control.
Take `O[C@@H](CS)[C@@H](O)CS` [DTT]: at DPRP-1 [1] (inhibitor 2 mM), the “Residual activity (% of control) DPRP-1” value was 100.1 % of control. For the same molecule, the “Residual activity (% of control) DPPIV” value on DPPIV [2] (inhibitor 2 mM) was 98.3 % of control. The “Residual activity (% of control) DPRP-2” value on DPRP-2 [3] (inhibitor 2 mM) was 94.8 % of control.
As to `O=C(O)CN(CCN(CC(=O)O)CC(=O)O)CC(=O)O` [EDTA], the “Residual activity (% of control) DPRP-1” value on DPRP-1 [1] (inhibitor 2 mM) was 91.5 % of control. Besides, the “Residual activity (% of control) DPPIV” value at DPPIV [2] (inhibitor 2 mM) was 93.5 % of control. In addition, at DPRP-2 [3] (inhibitor 2 mM), the “Residual activity (% of control) DPRP-2” value is listed as 86.0 % of control.
`NCC(=O)N[C@@H](CCCN=C(N)N)C(=O)Nc1ccc([N+](=O)[O-])cc1` [Gly-Arg-pNA] (H-Gly-Arg-pNA): the “% Change … at 30 minutes DPPIV” value at DPPIV [4] amounted to 0.0%. The “% Change … at 30 minutes DPRP-1” value on DPRP-1 [5] is listed as −4.5%. Moreover, the “% Change … at 30 minutes DPRP-2” value at DPRP-2 [6] was −0.5%.
For the molecule `Cc1cc(=O)oc2cc(NC(=O)[C@@H]3CCCN3C(=O)CN)ccc12` [Gly-Pro-AMC] (H-Gly-Pro-{AMC}), the “% Change … at 30 minutes DPPIV” value at DPPIV [4] was 444.0%. Also, the “% Change … at 30 minutes DPRP-1” value at DPRP-1 [5] came to 341.5%. For the same molecule, the “% Change … at 30 minutes DPRP-2” value at DPRP-2 [6] is listed as 205.0%.
As to `CC(=O)N[C@@H](CC(C)C)C(=O)N[C@@H](CC(C)C)C(=O)N[C@H](C=O)CCCNC(=N)N` [Leupeptin], the “Residual activity (% of control) DPRP-1” value on DPRP-1 [1] (inhibitor 50 μg/ml) is recorded as 91.1 % of control. Moreover, the “Residual activity (% of control) DPPIV” value at DPPIV [2] (inhibitor 50 μg/ml) is recorded as 90.7 % of control. The “Residual activity (% of control) DPRP-2” value on DPRP-2 [3] (inhibitor 50 μg/ml) is 90.4 % of control.
As to `C[C@H](NC(=O)[C@@H](N)CCCCN)C(=O)Nc1ccc([N+](=O)[O-])cc1` [Lys-Ala-pNA] (H-Lys-Ala-pNA), the “% Change … at 30 minutes DPPIV” value on DPPIV [4] is 0.5%. Further, at DPRP-1 [5], the “% Change … at 30 minutes DPRP-1” value is listed as 2.5%. Further, the “% Change … at 30 minutes DPRP-2” value on DPRP-2 [6] is recorded as 0.5%.
On to `CC(C)CC(=O)N[C@H](C(=O)N[C@H](C(=O)N[C@@H](CC(C)C)[C@@H](O)CC(=O)N[C@@H](C)C(=O)N[C@@H](CC(C)C)[C@@H](O)CC(=O)O)C(C)C)C(C)C` [Pepstatin] (Isovaleryl-VV[Sta]A[Sta]-OH), for which the “Residual activity (% of control) DPRP-1” value at DPRP-1 [1] (inhibitor 2 μg/ml) is reported as 97.3 % of control. Also, at DPPIV [2] (inhibitor 2 μg/ml), the “Residual activity (% of control) DPPIV” value is reported as 93.5 % of control. Moreover, the “Residual activity (% of control) DPRP-2” value on DPRP-2 [3] (inhibitor 2 μg/ml) is reported as 95.0 % of control.
Consider `O=C(Nc1ccc([N+](=O)[O-])cc1)[C@@H]1CCCN1` [Pro-pNA], for which the “% Change … at 30 minutes DPPIV” value on DPPIV [4] is on record as 0.0%. The “% Change … at 30 minutes DPRP-1” value at DPRP-1 [5] is listed as −1%. Besides, the “% Change … at 30 minutes DPRP-2” value at DPRP-2 [6] is given as −2.5%.
Consider Aprotinin, for which, in the series with DPRP-1 [1] (inhibitor 5 μg/ml), the “Residual activity (% of control) DPRP-1” value is 77.5 % of control. For the same molecule, in the series with DPPIV [2] (inhibitor 5 μg/ml), the “Residual activity (% of control) DPPIV” value is 80.2 % of control. Further, the “Residual activity (% of control) DPRP-2” value with DPRP-2 [3] (inhibitor 5 μg/ml) was 63.2 % of control.
